Data published in publication PMC4249762 (Nature cell biology, 2014).

Tests used:
Format in all cases: biochemical
cathepsin S = cathepsin S (Homo sapiens, UniProt P25774); experiment: fluorimetric hydrolysis of Z-Leu-Arg-AMC by purified enzyme, pH […]
cathepsin B = cathepsin B (Homo sapiens, UniProt P07858); experiment: enzyme selectivity assay with peptide substrate
mouse cathepsin S = mouse cathepsin S (Mus musculus, UniProt O70370); experiment: fluorimetric hydrolysis of Z-Leu-Arg-AMC by purified enzyme, pH […]

Chain of cathepsin S (P25774 115-331): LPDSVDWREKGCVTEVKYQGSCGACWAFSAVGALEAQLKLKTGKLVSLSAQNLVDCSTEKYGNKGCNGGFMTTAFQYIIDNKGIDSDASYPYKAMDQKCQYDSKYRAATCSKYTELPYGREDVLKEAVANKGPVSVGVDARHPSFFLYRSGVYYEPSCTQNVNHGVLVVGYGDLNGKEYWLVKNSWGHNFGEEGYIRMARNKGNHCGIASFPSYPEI

Ki (cathepsin S): 0.29 nM | Ki (cathepsin B): 700 nM | Ki (mouse cathepsin S): 0.69 nM
Substance: VBY-999
